Test results reported in US20040072907A1, “Antipicornaviral compounds, compositions containing them, and methods for their use” (priority 1997, published 2004).
Read-outs that look alike come from different tables or passages of the source.

Tests used:
HRV serotype-14 = assay: Antirhinoviral HI-HeLa cell culture assay (XTT cell protection), HRV-14; type: cell-based, human rhinovirus; settings: HRV serotype-14, HI-HeLa cells, m.o.i. 0.13, two days, XTT; read-out: EC50
Protocol: (§1) In the Cell Protection Assay, the ability of compounds to protect cells against HRV infection was measured by the XTT dye reduction method. This method is described in Weislow, O. S., Kiser, R., Fine, D. L., Bader, J., Shoemaker, R. H., Boyd, M. R., J. Natl. Cancer Inst. 1989, 81, 577-586, the disclosure of which is incorporated herein by reference.
(§2) Infected or mock-infected cells were resuspended at 8×10^5 cells per mL and incubated with appropriate concentrations of compounds of formula I. Two days later, XTT/PMS was added to test plates, and the amount of formazan produced was quantified spectrophotometrically at 450/650 nm. […] The therapeutic index (TI) was calculated by dividing the CC50 by the EC50.
(§3) All strains of human rhinovirus (HRV) for use in this assay were purchased from American Type Culture Collection (ATCC) except for HRV serotype-14, which was produced from the infectious cDNA clone constructed and supplied to Applicants by Dr. Robert Rueckert at the Institute for Molecular Virology, University of Wisconsin, Madison, Wis. HRV stocks were propagated, and viral assays were performed in HI-HeLa cells (ATCC). Cells were grown in Minimal Essential Medium, available from Life Technologies, with 10% fetal bovine serum.
(§4) The compounds were tested against control compounds WIN 51711, WIN 52084, and WIN 54954, all obtained from Sterling-Winthrop Pharmaceuticals, and control compound Pirodavir, obtained from Janssen Pharmaceuticals. Antiviral data obtained for the test compounds are shown in Table 2 where all data are for HRV serotype-14 unless otherwise noted in parentheses.

HI-HeLa cells = assay: Cytotoxicity in mock-infected HI-HeLa cells (XTT, antirhinoviral assay); type: cell-based
Protocol: as §1, §2
HRV stocks were propagated, and viral assays were performed in HI-HeLa cells (ATCC). Cells were grown in Minimal Essential Medium, available from Life Technologies, with 10% fetal bovine serum.

HRV serotype 89 = assay: Antirhinoviral HI-HeLa cell culture assay (XTT cell protection), HRV-89; type: cell-based, human rhinovirus; settings: HRV serotype 89, HI-HeLa cells
Protocol: as §1, §2, §3, §4

HRV serotype 1A = assay: Antirhinoviral HI-HeLa cell culture assay (XTT cell protection), HRV-1A; type: cell-based, human rhinovirus; settings: HI-HeLa cells
Protocol: as §1, §2, §3, §4

[1] = molecular target: T1, Recombinant Rhinovirus 3C protease serotype 14 (Human rhinovirus 14, UniProt P03303); assay: biochemical; settings: RVP serotype-14; progress curves, enzyme start experiments
T1 construct: Recombinant Rhinovirus 3C proteases from serotypes 14, 16, and 2; made in house
Protocol: Stock solutions (50 mM, in DMSO) of various compounds were prepared; dilutions were in the same solvent. […] Assays contained 2% DMSO, 50 mM tris pH 7.6, 1 mM EDTA, a compound at the indicated concentrations, approximately 1 μM substrate, and 50-100 nM protease. […] The kobs/I values were obtained from reactions initiated by addition of enzyme rather than substrate. RVP activity is measured in the fluorescence resonance energy transfer assay. […] In the uncleavaed peptide, the EDANS fluorescence was quenched by the proximal DABCYL moiety. When the peptide was cleaved, the quenching was relieved, and activity was measured as an increase in fluorescence signal.
The data in the column designated kobs/I was measured from progress curves enzyme start experiments.

HRV serotype 10 = assay: Antirhinoviral HI-HeLa cell culture assay (XTT cell protection), HRV-10; type: cell-based, human rhinovirus; settings: HRV serotype 10, HI-HeLa cells
Protocol: as §1, §2, §3, §4

HRV serotype 39 = assay: Antirhinoviral HI-HeLa cell culture assay (XTT cell protection), HRV-39; type: cell-based, human rhinovirus; settings: HRV serotype 39, HI-HeLa cells
Protocol: as §1, §2, §3, §4

HRV serotype 16 = assay: Antirhinoviral HI-HeLa cell culture assay (XTT cell protection), HRV-16; type: cell-based, human rhinovirus; settings: HRV serotype 16, HI-HeLa cells
Protocol: as §1, §2, §3, §4

[2] = mock-infected HI-HeLa cells, line for HRV serotype 1A, read-out: CC50
[3] = mock-infected HI-HeLa cells, line for HRV serotype 2, read-out: CC50
[4] = mock-infected HI-HeLa cells, line for HRV serotype 10, read-out: CC50
[5] = mock-infected HI-HeLa cells, line for HRV serotype 16, read-out: CC50
[6] = mock-infected HI-HeLa cells, line for HRV serotype 39, read-out: CC50
[7] = mock-infected HI-HeLa cells, line for HRV serotype 89, read-out: CC50
[8] = mock-infected HI-HeLa cells, line for HRV serotype-14, read-out: CC50

T1 sequence (P03303 1538-1719): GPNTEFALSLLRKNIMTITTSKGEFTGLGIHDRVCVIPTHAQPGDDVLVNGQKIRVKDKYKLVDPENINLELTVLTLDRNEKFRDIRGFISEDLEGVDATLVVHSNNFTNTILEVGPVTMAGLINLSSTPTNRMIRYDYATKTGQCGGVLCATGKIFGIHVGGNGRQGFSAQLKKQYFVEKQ

Row | EC50 (HRV serotype 39) | Compound | EC50 (HRV serotype-14) | CC50 (HI-HeLa cells; [2]) | CC50 (HI-HeLa cells; [3]) | CC50 (HI-HeLa cells; [4]) | CC50 (HI-HeLa cells; [5]) | CC50 (HI-HeLa cells; [6]) | CC50 (HI-HeLa cells; [7]) | CC50 (HI-HeLa cells; [8]) | kobs/I [1] | other results
1 |  | CCOC(=O)/C=C/C(CCC(N)=O)NC(=O)C(CC(=O)C(NC(=O)SC1CCCC1)C(C)C)Cc1ccc(F)cc1 (stereo not drawn) [Compound 14] | 20 nM | > 10000 nM | > 10000 nM | > 10000 nM | > 10000 nM | > 10000 nM | > 10000 nM | > 10000 nM |  | EC50 (HRV serotype 89): 80 nM; EC50 (HRV serotype 1A): 170 nM
2 |  | CCOC(=O)/C=C/[C@H](CCC(N)=O)NC(=O)[C@@H](CC(=O)[C@@H](NC(=O)SCC)C(C)C)Cc1ccc(C(F)(F)F)cc1 [Compound 15, Ethyl-3-(EtSCO-L-ValΨ[COCH2]-L-(p-CF3)Phe-L-Gln)-E-Propenoate] | 63 nM |  |  |  |  |  |  | > 1000 nM | 127,000 M^−1sec^−1 | 
3 | 200 nM | CCOC(=O)/C=C/C(CCC(N)=O)NC(=O)C(CC(=O)C(NC(=O)SC1CCCC1)C(C)C)Cc1ccc(C(F)(F)F)cc1 [Compound 16, Ethyl-3-(CyPentylSCO-L-ValΨ[COCH2]-L-(p-CF3)Phe-L-Gln)-E-Propenoate] | 50 nM | > 3000 nM | > 3000 nM | > 3000 nM | > 3000 nM | > 3000 nM | > 3000 nM | > 3000 nM |  | EC50 (HRV serotype 10): 150 nM; EC50 (HRV serotype 89): 80 nM
4 |  | CCOC(=O)/C=C/C(CCC(N)=O)NC(=O)C(CC(=O)C(Cc1ccccc1)NC(=O)SC1CCCC1)Cc1ccc(F)cc1 [Compound 18, Ethyl-3-(CyPentylSCO-L-PheΨ[COCH2]-L-(p-F)Phe-L-Gln)-E-Propenoate] | 480 nM |  |  |  |  |  |  | > 3000 nM | 127,400 M^−1sec^−1 | 
5 | 400 nM | CCOC(=O)/C=C/C(CCC(N)=O)NC(=O)C(CC(=O)C(NC(=O)SC1CCCC1)C(C)(C)C)Cc1ccccc1 [Compound 22, Ethyl-3-(CyPentylSCO-L-tert-LeuΨ[COCH2]-L-Phe-L-Gln)-E-Propenoate] | 50 nM | > 32000 nM | > 32000 nM | > 32000 nM | > 32000 nM | > 32000 nM | > 32000 nM | > 32000 nM |  | EC50 (HRV serotype 16): 400 nM; EC50 (HRV serotype 1A): 430 nM
6 |  | CCOC(=O)/C=C/C(CCC(N)=O)NC(=O)C(CC(=O)C(NC(=O)CC1CCCC1)C(C)C)Cc1ccc(C)cc1 (stereo not drawn) [Compound 23] | 20900 nM |  |  |  |  |  |  |  | 36,500 M^−1sec^−1 | CC50 (HI-HeLa cells): > 10000 nM
7 |  | Cc1cc(CCCCCCCOc2ccc(C3=NCCO3)cc2)on1 [WIN 51711, reference compound] | 780 nM |  |  |  |  |  |  | > 60000 nM |  | 
8 |  | Cc1cc(CCCCCCCOc2ccc(C3=N[C@@H](C)CO3)cc2)on1 [WIN 52084, reference compound] | 70 nM |  |  |  |  |  |  | > 10000 nM |  | 
9 |  | Ethyl-3-(CyPentylSCO-L-CyhexΨ[COCH2]-L-(p-F)Phe-L-Gln)-E-Propenoate [Compound 24] |  |  |  |  |  |  |  | > 3000 nM |  | 

Row | Compound | EC50 (HRV serotype 39) | EC50 (HRV serotype-14) | CC50 (HI-HeLa cells; [2]) | CC50 (HI-HeLa cells; [3]) | CC50 (HI-HeLa cells; [4]) | CC50 (HI-HeLa cells; [5]) | CC50 (HI-HeLa cells; [6]) | CC50 (HI-HeLa cells; [7]) | CC50 (HI-HeLa cells; [8]) | kobs/I [1] | other results
10 | CC(=O)N1CC/C(=C\C(CCC(N)=O)NC(=O)C(CC(=O)C(NC(=O)SC2CCCC2)C(C)C)Cc2ccc(C)cc2)C1=O [Compound 17, [CyPentylSCO-L-ValΨ[COCH2]-L-(p-CH3)Phe-L-Gln]-E-1-Acetyl-3-methylene-pyrrolidin-2-one] | 480 nM | 27 nM |  | > 10000 nM |  |  | > 10000 nM |  | > 10000 nM |  | 
